Laboratory results: patent US10597388B2, “Pyridazinone herbicides” (FMC CORPORATION, priority 2014, dated 2020)

Columns and labels:
Experiment in all cases: Test C greenhouse herbicide test, pre- and postemergence
Assay type in all cases: in vivo
[1] = test system: nutsedge, yellow (yellow nutsedge, Cyperus esculentus)
How it was run: (§1)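 Greenhouse pots; pre-em on seeded loam:sand blend, post-em on 2–18 cm plants (1–4 leaf) in sphagnum peat/vermiculite medium. Formulation: non-phytotoxic solvent + surfactant. Read-out: visual % control (0–100) vs controls at 13–15 d.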

[2] = test system: pigweed (Amaranthus retroflexus)
How it was run: as §1

[3] = test system: ryegrass, Italian (Italian ryegrass, Lolium multiflorum)
How it was run: as §1

[4] = test system: barnyardgrass (Echinochloa crus-galli)
How it was run: as §1

[5] = test system: galium (catchweed bedstraw, Galium aparine)
How it was run: as §1

[6] = test system: johnsongrass (Sorghum halepense)
How it was run: as §1

[7] = test system: crabgrass, large (large crabgrass, Digitaria sanguinalis)
How it was run: as §1

[8] = test system: waterhemp (common waterhemp, Amaranthus rudis)
How it was run: as §1

[9] = test system: velvetleaf (Abutilon theophrasti)
How it was run: as §1

[10] = test system: ragweed (common ragweed, Ambrosia elatior)
How it was run: as §1

[11] = test system: blackgrass (Alopecurus myosuroides)
How it was run: as §1

[12] = test system: morningglory (Ipomoea coccinea)
How it was run: as §1

[13] = test system: lambsquarters (Chenopodium album)
How it was run: as §1

[14] = test system: foxtail, giant (giant foxtail, Setaria faberii)
How it was run: as §1

[15] = test system: oilseed rape (Brassica napus)
How it was run: as §1

corn (Zea mays) = test system: corn (Zea mays)
How it was run: as §1

[16] = Postemergence, 31 g ai/ha, 0 to 100 scale (0 no effect, 100 complete control)
[17] = Postemergence, 125 g ai/ha, scale 0 to 100, 0 is no effect, 100 is complete control
[18] = Postemergence, 250 g ai/ha, scale 0 to 100, 0 no effect, 100 complete control, 13 to 15 d
[19] = Preemergence, 31 g ai/ha, scale 0 to 100, 0 is no effect, 100 is complete control
[20] = Preemergence, 62 g ai/ha, scale 0 to 100, 0 is no effect, 100 is complete control
[21] = Preemergence, 125 g ai/ha, scale 0 to 100, 0 is no effect, 100 is complete control
[22] = Preemergence, 250 g ai/ha, scale 0 to 100 (0 no effect, 100 complete control)
[23] = postemergence, 62 g ai/ha, scale 0 to 100, 0 no effect, 100 complete control

Cc1ccc2ccccc2c1-c1c(O)c(C)nn(C)c1=O [Compound 59]
Nutsedge, Yellow plant response rating [1, 16]: 65
Plant response rating, Nutsedge, Yellow [1, 17]: 95
Plant response rating, Nutsedge, Yellow [1, 18]: 95
Plant response rating, Nutsedge, Yellow [1, 19]: 80
Plant response rating, Nutsedge, Yellow [1, 20]: 80
Plant response rating, Nutsedge, Yellow [1, 21]: 85
Nutsedge, Yellow plant response rating [1, 22]: 90
Nutsedge, Yellow plant response rating [1, 23]: 85
Pigweed plant response rating [2, 16]: 90
Plant response rating, Pigweed [2, 17]: 95
Plant response rating, Pigweed [2, 18]: 98
Plant response rating, Pigweed [2, 19]: 100
Plant response rating, Pigweed [2, 20]: 100
Plant response rating, Pigweed [2, 21]: 100
Pigweed plant response rating [2, 22]: 100
Pigweed plant response rating [2, 23]: 95
Ryegrass, Italian plant response rating [3, 16]: 85
Plant response rating, Ryegrass, Italian [3, 17]: 90
Plant response rating, Ryegrass, Italian [3, 18]: 95
Plant response rating, Ryegrass, Italian [3, 19]: 100
Plant response rating, Ryegrass, Italian [3, 20]: 100
Plant response rating, Ryegrass, Italian [3, 21]: 100
Ryegrass, Italian plant response rating [3, 22]: 100
Ryegrass, Italian plant response rating [3, 23]: 90
Barnyardgrass plant response rating [4, 16]: 20
Plant response rating, Barnyardgrass [4, 17]: 55
Plant response rating, Barnyardgrass [4, 18]: 70
Plant response rating, Barnyardgrass [4, 19]: 30
Plant response rating, Barnyardgrass [4, 20]: 70
Plant response rating, Barnyardgrass [4, 21]: 90
Barnyardgrass plant response rating [4, 22]: 95
Barnyardgrass plant response rating [4, 23]: 30
Galium plant response rating [5, 16]: 95
Plant response rating, Galium [5, 17]: 98
Plant response rating, Galium [5, 18]: 98
Plant response rating, Galium [5, 19]: 98
Plant response rating, Galium [5, 20]: 95
Plant response rating, Galium [5, 21]: 98
Galium plant response rating [5, 22]: 98
Galium plant response rating [5, 23]: 98
Johnsongrass plant response rating [6, 16]: 5
Plant response rating, Johnsongrass [6, 17]: 25
Plant response rating, Johnsongrass [6, 18]: 35
Plant response rating, Johnsongrass [6, 19]: 5
Plant response rating, Johnsongrass [6, 20]: 25
Plant response rating, Johnsongrass [6, 21]: 45
Johnsongrass plant response rating [6, 22]: 65
Johnsongrass plant response rating [6, 23]: 5
Crabgrass, Large plant response rating [7, 16]: 15
Plant response rating, Crabgrass, Large [7, 17]: 25
Plant response rating, Crabgrass, Large [7, 18]: 60
Plant response rating, Crabgrass, Large [7, 19]: 25
Plant response rating, Crabgrass, Large [7, 20]: 70
Plant response rating, Crabgrass, Large [7, 21]: 85
Crabgrass, Large plant response rating [7, 22]: 100
Crabgrass, Large plant response rating [7, 23]: 20
Waterhemp plant response rating [8, 16]: 85
Plant response rating, Waterhemp [8, 17]: 98
Plant response rating, Waterhemp [8, 18]: 100
Plant response rating, Waterhemp [8, 19]: 95
Plant response rating, Waterhemp [8, 20]: 100
Plant response rating, Waterhemp [8, 21]: 100
Waterhemp plant response rating [8, 22]: 100
Waterhemp plant response rating [8, 23]: 90
Velvetleaf plant response rating [9, 16]: 80
Plant response rating, Velvetleaf [9, 17]: 90
Plant response rating, Velvetleaf [9, 18]: 95
Plant response rating, Velvetleaf [9, 19]: 85
Plant response rating, Velvetleaf [9, 20]: 90
Plant response rating, Velvetleaf [9, 21]: 98
Velvetleaf plant response rating [9, 22]: 100
Velvetleaf plant response rating [9, 23]: 85
Ragweed plant response rating [10, 16]: 90
Plant response rating, Ragweed [10, 17]: 95
Plant response rating, Ragweed [10, 18]: 98
Plant response rating, Ragweed [10, 19]: 90
Plant response rating, Ragweed [10, 20]: 95
Plant response rating, Ragweed [10, 21]: 100
Ragweed plant response rating [10, 22]: 100
Ragweed plant response rating [10, 23]: 95
Blackgrass plant response rating [11, 16]: 65
Plant response rating, Blackgrass [11, 17]: 85
Plant response rating, Blackgrass [11, 18]: 90
Plant response rating, Blackgrass [11, 19]: 85
Plant response rating, Blackgrass [11, 20]: 90
Plant response rating, Blackgrass [11, 21]: 90
Blackgrass plant response rating [11, 22]: 98
Blackgrass plant response rating [11, 23]: 80
Morningglory plant response rating [12, 16]: 95
Plant response rating, Morningglory [12, 17]: 100
Plant response rating, Morningglory [12, 18]: 100
Plant response rating, Morningglory [12, 19]: 98
Plant response rating, Morningglory [12, 20]: 100
Plant response rating, Morningglory [12, 21]: 100
Morningglory plant response rating [12, 22]: 100
Morningglory plant response rating [12, 23]: 100
Lambsquarters plant response rating [13, 16]: 90
Plant response rating, Lambsquarters [13, 17]: 98
Plant response rating, Lambsquarters [13, 18]: 98
Plant response rating, Lambsquarters [13, 19]: 70
Plant response rating, Lambsquarters [13, 20]: 90
Plant response rating, Lambsquarters [13, 21]: 95
Lambsquarters plant response rating [13, 22]: 95
Lambsquarters plant response rating [13, 23]: 95
Foxtail, Giant plant response rating [14, 16]: 45
Plant response rating, Foxtail, Giant [14, 17]: 85
Plant response rating, Foxtail, Giant [14, 18]: 90
Plant response rating, Foxtail, Giant [14, 19]: 80
Plant response rating, Foxtail, Giant [14, 20]: 95
Plant response rating, Foxtail, Giant [14, 21]: 98
Foxtail, Giant plant response rating [14, 22]: 100
Foxtail, Giant plant response rating [14, 23]: 60
Oilseed Rape plant response rating [15, 16]: 5
Plant response rating, Oilseed Rape [15, 17]: 40
Plant response rating, Oilseed Rape [15, 18]: 55
Plant response rating, Oilseed Rape [15, 19]: 65
Plant response rating, Oilseed Rape [15, 20]: 80
Plant response rating, Oilseed Rape [15, 21]: 95
Oilseed Rape plant response rating [15, 22]: 95
Oilseed Rape plant response rating [15, 23]: 50
Corn plant response rating (corn (Zea mays); [16]): 5
Plant response rating, Corn (corn (Zea mays); [17]): 65
Plant response rating, Corn (corn (Zea mays); [18]): 50
Plant response rating, Corn (corn (Zea mays); [19]): 0
Plant response rating, Corn (corn (Zea mays); [20]): 20
Plant response rating, Corn (corn (Zea mays); [21]): 50
Corn plant response rating (corn (Zea mays); [22]): 65
Corn plant response rating (corn (Zea mays); [23]): 45
